Results on 13 compounds are retold here after US12565494B2, “Inhibitors of human respiratory syncytial virus and metapneumovirus” (priority 2022, dated 2026).

The subject of one assay is hMPV-GFP virus. In words: microbe, parasite or virus in culture. Type of assay: cell-based, Human Metapneumovirus. To be noted: VERO cells, hMPV-GFP MOI=1.25, 48 hrs, GFP-expressing cells counted. On the procedure:
GFP expressing rgHMPV #3 p3 was generated in Dr. Buchholz's lab (Biacchesi S. et al., J Virol. 2007 June; 81(11): 6057-6067) and propagated in VERO cells (ATCC Cat #CCL-81) with a Multiplicity of Infection (MOI) of 0.1. Virus was harvested 4 days after infection by collecting cultured material and was freeze-thaw cycled in liquid nitrogen twice. Working virus stocks were generated from thawing frozen samples in 37° C. water bath, which were centrifuged at 218 g for 15 min at 4° C. 1/10 of 10×SPG (Biological Industries 06-3061-01-5A) were added and then mixed. The supernatant was aliquoted, frozen in liquid nitrogen, and then transferred to a −80° C. freezer for storage. Virus titer was determined by performing titration test in 96-well plates and calculate approximate virus titer using GFP event/well data.
Compound plates were prepared by dispensing compounds dissolved in DMSO into wells of a 384 well Corning 3985 polystyrene flat clear bottom optical imaging microplate (202.5 nL/well) using an ECHO acoustic dispenser. Each compound was tested in 10-point serial 3-fold dilution (typical final concentrations: 40,300 nM-2 nM). […] Continuous culture of VERO cells was maintained in complete culture media (OptiMEM supplemented with 2 mM GlutaMAX™ and 100 U/ml Penicillin-Streptomycin). To set up the assay, VERO cells were trypsinized with 0.25% Trypsin-EDTA until cells were dislodged, then cells were re-suspended with 1 mL FBS. Cells were spundown at 300 g for 5 minutes and cells were washed twice with culture media and counted using default parameters on ViCell. Cells were then diluted to 100,000 cells/mL (5,000 cells/50 μL) in complete culture media+TrypLE Select (80 μL/mL). hMPV-GFP virus was added to cells at 125,000 pfu/mL (MOI=1.25) and were mixed by gentle inversion. 10 μL/well of 100% DMSO was dispensed to CellTiter-Glo (CTG) assay Max_E controls wells. Cells were dispensed at 50 μL/well using Bravo and 50 μL filtered tips into compound plates. Plates were covered with MicroClime lids and loaded with 7.5 mL of assay media to minimize evaporation. Plates were lightly shaken for 10 minutes at room temperature and then incubated at 37° C. and 5% CO2 for 48 hrs. Following incubation, distinct GFP-expressing cells were counted using an Acumen imaging system with appropriate settings. A same-well CTG assay was performed by adding 10 μL/well reconstituted CellTiter-Glo reagent (Promega G7573) and plates were read on PerkinElmer Envision according to manufacturer's instructions. Raw data were loaded and analyzed in ActivityBase. Antiviral IC50 and cytotoxicity CC50 values were determined using a 4 parameter logistic fit based on the Levenberg-Marquardt algorithm. Model: 205-4 Parameter Logistic.

The next assay relates to RSV-A2-GFP virus. The assay is described as follows: microbe, parasite or virus in culture. Type of assay: cell-based, Human Respiratory Syncytial Virus. The following applies: Calu-1 cells, RSV-A2-GFP MOI=1.2, 96 hrs, GFP-expressing cells counted. Here is the method: To set up the assay, ARF vials were thawed in a 37° C. water bath and a control compound was resuspended in assay media DMEM (Dulbecco's Modified Eagle Medium) containing 2% FBS, 100 U/ml Penicillin-Streptomycin.
GFP sequence was derived from pJTI™ R4 Dest CMV N-EmGFP pA Vector (Invitrogen) and was cloned into the intergenic sequence between wild-type RSV-A2 P and M genes using standard recombineering techniques. Recombinant RSV-A2-GFP was propagated in Hep2 cells (human cells contain HeLa marker chromosomes and were derived via HeLa contamination, ATCC CCL-23) with a Multiplicity of Infection (MOI) of 0.1. Virus was harvested 3 days after infection by collecting all culture material and then freeze-thawing the mixture for 5 minutes. Working virus stocks were generated by thawing frozen viral cultures in 37° C. water bath, which were centrifuged at 218 g for 15 min at 4° C. 1/10 of 10×SPG (Biological Industries 06-3061-01-5A) were added and then mixed. The supernatant was aliquoted, frozen in liquid nitrogen, and then transferred to a −80° C. freezer for storage. Virus titer was determined by automated plaque assay in HEp-2 cells following methods described previously (Wen Z. et al.; 2019).
Calu-1 cells were purchased from ATCC (Cat #HTB-54) and were expanded in growth media (DMEM containing 10% FBS, 100 U/ml Penicillin-Streptomycin). To make ARF, cell culture media was removed and discarded and the cell layer was briefly rinsed with PBS to remove serum. 2.5 mL of TrypLE Express solution were added and cells incubated until dislodged, to which growth media was added and the cells were resuspended by gentle pipetting. Cells were counted for concentration and viability as determined by ViCell. Cells were centrifuged at RT, 300 g for 5 minutes to pellet cells. The supernatant was gently aspirated and the pellet was flicked to loosen cells. Cells were resuspended in an appropriate volume of freezing medium (DMEM containing 10% DMSO, 10% FBS, 100 U/ml Penicillin-Streptomycin) to achieve a concentration of 5×10^6 cells/mL. 1 mL aliquots of the cell suspension were transferred to freezing vials. The vials were put into an upright container in a −80° C. freezer overnight before transferring vials to liquid nitrogen for storage
Assay ready freeze-down (ARF, generation described separately) Calu-1 cells (ATCC HTB-54) were used. Compound plates were prepared by dispensing compounds dissolved in DMSO into the wells of a 384 well Corning® 3985 plate with an ECHO acoustic dispenser and compounds were tested in 10-point serial 3-fold dilution. […] To set up the assay, ARF vial(s) were thawed in a 37° C. water bath and were then resuspended into assay media (DMEM containing 2% FBS, 100 U/ml Penicillin-Streptomycin). Cells were counted using default parameters on ViCell and diluted to 20,000 cells/mL in assay media. RSV-A2-GFP virus was added to cells at 24,000 pfu/ml (MOI=1.2) and mixed by gentle inversion. 10 μL/well of 100% DMSO was dispensed as CellTiter-Glo (CTG) assay Max_E controls wells. The cells were dispensed at 50 μL/well using Bravo with 50 μL filtered tips into compound plates. Plates were covered with MicroClime lids, loaded with 7.5 mL of assay media to minimize evaporation, and were incubated at 37° C. and 5% CO2 for 96 hrs. Following incubation, distinct, GFP-expressing cells were counted using an Acumen imaging system with appropriate settings. A same-well CTG assay was performed by adding 10 μL/well reconstituted CellTiter-Glo reagent (Promega G7573) and plates were read on PerkinElmer Envision according to manufacturer's instructions. Raw data were loaded and analyzed in ActivityBase. Antiviral IC50 and cytotoxicity CC50 values were determined using a 4 parameter logistic fit based on the Levenberg-Marquardt algorithm. Model: 205-4 Parameter Logistic.

The mark [1] stands for this setting: Vero, 48 h, read-out: RSV EC50, Table II Summary of Activities for hMPV.
The mark [2] stands for this setting: human respiratory syncytial virus, Calu-1, 96 h, read-out: RSV EC50, Table I Summary of Activities for RSV.
Where [3] appears, read: Table II Summary of Activities for hMPV, read-out: RSV EC50.
Where [4] appears, read: Table I Summary of Activities for RSV, read-out: RSV EC50.

Structures are written as SMILES. pEC50: −log10 of the molar value. Like-named read-outs stand apart in the source and are kept apart here. Where only a bound is given, the exact number is not on record here.

In the case of `Cn1nc(-c2cscn2)cc1C(=O)N1C[C@@H]2[C@H](C1)[C@H]2Oc1cc(C2(C)CCCN2)cc(-c2ccc(F)cc2)n1` (single isomer, unassigned; enantiomer 1) [Example 56A], the pEC50 in the assay with hMPV-GFP virus (setting [1]) was under 7.00; in the assay with RSV-A2-GFP virus (setting [2]), over 8.00.
On to `Cn1nc(-c2ccon2)cc1C(=O)N1C[C@@H]2[C@H](C1)[C@H]2Oc1cc(C(C)(C)N)cc(-c2ccc3c(c2)CC3(F)F)n1` [Example 36, ((1R,5S,6s)-6-((4-(2-aminopropan-2-yl)-6-(7,7-difluorobicyclo[4.2.0]octa-1(6),2,4-trien-3-yl)pyridin-2-yl)oxy)-3-azabicyclo[3.1.0]hexan-3-yl)(3-(isoxazol-3-yl)-1-methyl-1H-pyrazol-5-yl)methanone], for which the pEC50 with hMPV-GFP virus (setting [3]) is under 7.00; in the assay on RSV-A2-GFP virus (setting [4]), over 8.00.
As to `Cn1nc(-c2cscn2)cc1C(=O)N1C[C@@H]2[C@H](C1)[C@H]2Oc1cc(C(C)(C)N)cc(N2CCC(C)(C)CC2)n1` [Example 39, ((1R,5S,6s)-6-((4-(2-aminopropan-2-yl)-6-(4,4-dimethylpiperidin-1-yl)pyridin-2-yl)oxy)-3-azabicyclo[3.1.0]hexan-3-yl)(1-methyl-3-(thiazol-4-yl)-1H-pyrazol-5-yl)methanone], the pEC50 in the assay on hMPV-GFP virus (setting [3]) was under 7.00; with RSV-A2-GFP virus (setting [4]), over 8.00.
As to `CCn1nc(-c2cscn2)cc1C(=O)N1C[C@@H]2[C@H](C1)[C@H]2Oc1cc(C(C)(C)N)cc(-c2ccc(F)cc2)n1` [Example 19, ((1R,5S,6s)-6-((4-(2-aminopropan-2-yl)-6-(4-fluorophenyl)pyridin-2-yl)oxy)-3-azabicyclo[3.1.0]hexan-3-yl)(1-ethyl-3-(thiazol-4-yl)-1H-pyrazol-5-yl)methanone], the pEC50 is 7.00 to 8.00 with hMPV-GFP virus (setting [1]) and over 8.00 with RSV-A2-GFP virus (setting [2]).
On the same counts, the results for `Cn1nc(-c2ncco2)cc1C(=O)N1C[C@@H]2[C@H]1C[C@H]2Oc1cc(C(C)(C)N)cc(-c2ccc(F)cc2)n1` (single isomer, unassigned; enantiomer 2) [Example 2] are under 7.00 and 7.00 to 8.00.
In the case of `Cn1nc(-c2cscn2)cc1C(=O)N1C[C@@H]2[C@H](C1)[C@H]2Oc1cc(C2(N)CCCC2)cc(-c2ccc(F)cc2)n1` [Example 53, ((1R,5S,6s)-6-((4-(1-aminocyclopentyl)-6-(4-fluorophenyl)pyridin-2-yl)oxy)-3-azabicyclo[3.1.0]hexan-3-yl)(1-methyl-3-(thiazol-4-yl)-1H-pyrazol-5-yl)methanone], the pEC50 is under 7.00 in the assay on hMPV-GFP virus (setting [1]) and over 8.00 with RSV-A2-GFP virus (setting [2]).
Taken in the same sequence, the figures for `Cn1nc(-c2cscn2)cc1C(=O)N1C[C@H]2[C@H](Oc3cc(C(C)(C)N)cc(N4CCC(C)(C)CC4)n3)[C@@]2(C)C1` (single isomer, unassigned; enantiomer 1) [Example 46A] were under 7.00 and over 8.00.
For `Cn1nc(-c2ncco2)cc1C(=O)N1C[C@@H]2[C@H](C1)[C@H]2Oc1cc(C(C)(C)N)cc(N2CCC(C(F)(F)F)CC2)n1` [Example 40, ((1R,5S,6s)-6-((4-(2-aminopropan-2-yl)-6-(4-(trifluoromethyl)piperidin-1-yl)pyridin-2-yl)oxy)-3-azabicyclo[3.1.0]hexan-3-yl)(1-methyl-3-(oxazol-2-yl)-1H-pyrazol-5-yl)methanone], the pEC50 in the assay on hMPV-GFP virus (setting [3]) was under 7.00; in the assay on RSV-A2-GFP virus (setting [4]), over 8.00.
For the compound `Cn1nc(-c2cscn2)cc1C(=O)N1C[C@@H]2[C@H](C1)[C@H]2Oc1cc(C(C)(C)N)cc(C2CCC(C)(C)CC2O)n1` (single isomer, unassigned; enantiomer 2) [Example 66B], the pEC50 in the assay on hMPV-GFP virus (read-out: RSV EC50, Table II Summary of Activities for hMPV) is under 7.00; in the assay on RSV-A2-GFP virus (read-out: RSV EC50, Table I Summary of Activities for RSV), 7.00 to 8.00.
Take `Cc1nc(-c2cscn2)sc1C(=O)N1C[C@@H]2[C@H](C1)[C@H]2Oc1cc(C(C)(C)N)cc(-c2ccc(F)cc2)n1` [Example 7, ((1R,5S,6s)-6-((4-(2-aminopropan-2-yl)-6-(4-fluorophenyl)pyridin-2-yl)oxy)-3-azabicyclo[3.1.0]hexan-3-yl)(4-methyl-[2,4′-bithiazol]-5-yl)methanone]: the pEC50 is 7.00 to 8.00 in the assay with hMPV-GFP virus (setting [3]) and over 8.00 in the assay on RSV-A2-GFP virus (setting [4]).
Take `Cn1nc(-c2cscn2)cc1C(=O)N1C[C@@H]2[C@H](C1)[C@H]2Oc1cc(C2(C)CNC2=O)cc(-c2ccc(F)cc2)n1` (single isomer, unassigned; ent-3) [Example 50A]: the pEC50 with hMPV-GFP virus (setting [1]) was under 7.00; with RSV-A2-GFP virus (setting [2]) it was over 8.00.
On the same counts, the results for `Cn1nc(-c2cscn2)cc1C(=O)N1C[C@@H]2[C@H](C1)[C@H]2Oc1cc(C(C)(C)N)cc(C2CCC(C)(C)CC2O)n1` (single isomer, unassigned; enantiomer 1) [Example 66A] are under 7.00 and over 8.00.
For `Cc1nc(-c2cccs2)sc1C(=O)N1C[C@@H]2[C@H](C1)[C@H]2Oc1cc(C(C)(C)N)cc(-c2ccc(F)cc2)n1` [Example 12, ((1R,5S,6s)-6-((4-(2-aminopropan-2-yl)-6-(4-fluorophenyl)pyridin-2-yl)oxy)-3-azabicyclo[3.1.0]hexan-3-yl)(4-methyl-2-(thiophen-2-yl)thiazol-5-yl)methanone], the negative logarithm of the EC50 (pEC50) is under 7.00 in the assay on hMPV-GFP virus (setting [3]) and over 8.00 in the assay with RSV-A2-GFP virus (setting [4]).
